Experimental data from ChEMBL document CHEMBL1158509, “Novel selective thiazoleacetic acids as CRTH2 antagonists developed from in silico derived hits. Part 2” (Bioorg Med Chem Lett, 2010).
≈ marks a conversion by molar mass, not a printed value.

Assays:
[1] = Bioavailability in rat; type: ADME, organism-based; settings: in vivo
[2] = target: T1, Prostaglandin D2 receptor 2 (Homo sapiens, UniProt Q9Y5Y4); test: Displacement of[3H]PGD2 from human CRTH2 receptor expressed in […] cells; type: cell-based
T1 sequence (Q9Y5Y4 whole entry): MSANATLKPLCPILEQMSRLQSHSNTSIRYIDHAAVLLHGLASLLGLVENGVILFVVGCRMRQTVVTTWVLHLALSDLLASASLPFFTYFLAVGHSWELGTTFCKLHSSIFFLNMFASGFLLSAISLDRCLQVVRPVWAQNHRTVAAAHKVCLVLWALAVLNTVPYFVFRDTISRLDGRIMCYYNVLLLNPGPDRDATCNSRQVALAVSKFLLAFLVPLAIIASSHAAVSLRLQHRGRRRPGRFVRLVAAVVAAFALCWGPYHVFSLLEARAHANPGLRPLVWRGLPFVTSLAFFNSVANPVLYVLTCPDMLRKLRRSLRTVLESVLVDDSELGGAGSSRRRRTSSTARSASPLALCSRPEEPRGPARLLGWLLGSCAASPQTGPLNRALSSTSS

[3] = target: T1, Prostaglandin D2 receptor 2; test: Antagonist activity at human CRTH2 receptor expressed in […] cells assessed as inhibition of beta arrestin translocation by bioluminescence resonance energy transfer assay; type: functional, cell-based
[4] = target: T2, Polyunsaturated fatty acid lipoxygenase ALOX15 (Homo sapiens) (UniProt P16050); test: Inhibition of 15-lipoxygenase at 10 uM
T2 sequence (whole entry): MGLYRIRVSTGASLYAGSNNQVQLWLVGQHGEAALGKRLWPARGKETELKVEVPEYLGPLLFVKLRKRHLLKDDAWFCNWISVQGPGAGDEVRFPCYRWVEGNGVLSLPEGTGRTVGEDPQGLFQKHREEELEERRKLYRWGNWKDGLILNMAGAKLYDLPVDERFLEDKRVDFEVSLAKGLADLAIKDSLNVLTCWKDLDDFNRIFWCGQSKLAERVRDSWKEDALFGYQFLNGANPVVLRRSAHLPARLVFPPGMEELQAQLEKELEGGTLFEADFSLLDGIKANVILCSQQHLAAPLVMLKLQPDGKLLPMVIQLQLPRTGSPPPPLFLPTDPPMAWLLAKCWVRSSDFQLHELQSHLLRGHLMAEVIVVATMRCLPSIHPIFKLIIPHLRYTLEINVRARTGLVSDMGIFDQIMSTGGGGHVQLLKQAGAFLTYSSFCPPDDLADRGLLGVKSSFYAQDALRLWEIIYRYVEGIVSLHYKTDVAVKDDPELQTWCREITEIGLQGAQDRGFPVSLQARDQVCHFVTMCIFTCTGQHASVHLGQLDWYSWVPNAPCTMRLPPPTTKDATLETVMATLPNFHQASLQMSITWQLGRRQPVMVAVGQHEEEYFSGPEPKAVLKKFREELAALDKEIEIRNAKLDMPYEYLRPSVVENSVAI

[5] = target: T3, Prostaglandin D2 receptor (Homo sapiens, UniProt Q13258); test: Inhibition of DP1 receptor
T3 sequence (Q13258 whole entry): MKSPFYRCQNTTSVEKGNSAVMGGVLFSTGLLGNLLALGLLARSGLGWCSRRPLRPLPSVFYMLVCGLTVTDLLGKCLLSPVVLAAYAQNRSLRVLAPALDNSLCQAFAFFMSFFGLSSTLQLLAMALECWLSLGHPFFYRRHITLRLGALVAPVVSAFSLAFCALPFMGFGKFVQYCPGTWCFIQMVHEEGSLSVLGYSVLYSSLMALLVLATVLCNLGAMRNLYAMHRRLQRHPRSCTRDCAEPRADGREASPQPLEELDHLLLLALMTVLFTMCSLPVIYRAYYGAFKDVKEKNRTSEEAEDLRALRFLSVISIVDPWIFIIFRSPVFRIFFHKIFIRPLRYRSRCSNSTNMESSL

CYP3A4 = CYP3A4 (Homo sapiens, UniProt P08684); test: Inhibition of CYP3A4 at 1 uM; type: ADME
Chain of CYP3A4 (P08684 whole entry): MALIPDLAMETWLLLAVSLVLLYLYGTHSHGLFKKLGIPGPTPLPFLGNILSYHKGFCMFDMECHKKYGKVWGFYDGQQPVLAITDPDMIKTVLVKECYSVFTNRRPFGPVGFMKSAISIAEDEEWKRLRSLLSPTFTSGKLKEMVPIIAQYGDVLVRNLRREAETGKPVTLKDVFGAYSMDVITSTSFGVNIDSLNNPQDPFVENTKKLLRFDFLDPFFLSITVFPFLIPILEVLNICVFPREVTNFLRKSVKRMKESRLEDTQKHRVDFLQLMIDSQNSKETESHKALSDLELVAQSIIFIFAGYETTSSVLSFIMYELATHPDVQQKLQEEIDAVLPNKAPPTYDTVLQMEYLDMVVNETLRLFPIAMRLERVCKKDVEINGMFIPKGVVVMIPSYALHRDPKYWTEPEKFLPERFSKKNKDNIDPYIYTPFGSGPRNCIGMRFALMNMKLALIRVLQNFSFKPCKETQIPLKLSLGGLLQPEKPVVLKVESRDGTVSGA

[6] = Aqueous solubility at pH 1; type: physicochemical
[7] = target: T4, Prostaglandin D2 receptor 2 (Homo sapiens) (UniProt Q9Y5Y4); test: Antagonist activity at human CRTH2 receptor expressed in […] cells assessed as inhibition of beta arrestin translocation by bioluminescence resonance energy transfer assay relative to control; type: functional, cell-based
T4 sequence (whole entry): T1 sequence (Q9Y5Y4 whole entry)

[8] = Clearance in rat; type: ADME, organism-based; settings: in vivo
[9] = Aqueous solubility at pH 7.4; type: physicochemical
[10] = Metabolic stability in human liver S9 fraction assessed as compound remaining; type: ADME, subcellular
[11] = Half life in rat; type: ADME, organism-based; settings: in vivo
[12] = Permeability apical to basolateral side in human Caco-2 cells; type: ADME, cell-based; settings: read-out: permeability
[13] = target: Prostaglandin G/H synthase 1 (Homo sapiens) (UniProt P23219); test: Inhibition of COX1 at 10 uM
Chain of Prostaglandin G/H synthase 1 (Homo sapiens) (P23219 whole entry): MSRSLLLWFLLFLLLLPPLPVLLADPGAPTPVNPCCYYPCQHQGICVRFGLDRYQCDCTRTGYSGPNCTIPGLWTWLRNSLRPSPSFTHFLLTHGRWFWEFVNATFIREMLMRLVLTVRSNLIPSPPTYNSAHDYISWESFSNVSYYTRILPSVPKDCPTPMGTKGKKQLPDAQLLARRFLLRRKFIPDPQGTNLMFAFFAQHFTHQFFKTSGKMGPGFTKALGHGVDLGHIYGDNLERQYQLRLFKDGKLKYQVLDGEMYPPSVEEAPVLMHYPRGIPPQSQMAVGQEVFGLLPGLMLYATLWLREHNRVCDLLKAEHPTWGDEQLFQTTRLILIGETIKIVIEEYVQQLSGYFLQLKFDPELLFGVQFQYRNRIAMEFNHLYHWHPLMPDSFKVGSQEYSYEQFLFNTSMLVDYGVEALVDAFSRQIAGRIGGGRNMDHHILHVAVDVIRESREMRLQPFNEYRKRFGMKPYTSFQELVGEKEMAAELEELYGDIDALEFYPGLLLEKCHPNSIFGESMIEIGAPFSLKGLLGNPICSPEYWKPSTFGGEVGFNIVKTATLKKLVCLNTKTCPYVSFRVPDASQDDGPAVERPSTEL

[14] = target: T5, Polyunsaturated fatty acid lipoxygenase ALOX12 (Homo sapiens) (UniProt P18054); test: Inhibition of 12-lipoxygenase at 10 uM
T5 sequence (whole entry): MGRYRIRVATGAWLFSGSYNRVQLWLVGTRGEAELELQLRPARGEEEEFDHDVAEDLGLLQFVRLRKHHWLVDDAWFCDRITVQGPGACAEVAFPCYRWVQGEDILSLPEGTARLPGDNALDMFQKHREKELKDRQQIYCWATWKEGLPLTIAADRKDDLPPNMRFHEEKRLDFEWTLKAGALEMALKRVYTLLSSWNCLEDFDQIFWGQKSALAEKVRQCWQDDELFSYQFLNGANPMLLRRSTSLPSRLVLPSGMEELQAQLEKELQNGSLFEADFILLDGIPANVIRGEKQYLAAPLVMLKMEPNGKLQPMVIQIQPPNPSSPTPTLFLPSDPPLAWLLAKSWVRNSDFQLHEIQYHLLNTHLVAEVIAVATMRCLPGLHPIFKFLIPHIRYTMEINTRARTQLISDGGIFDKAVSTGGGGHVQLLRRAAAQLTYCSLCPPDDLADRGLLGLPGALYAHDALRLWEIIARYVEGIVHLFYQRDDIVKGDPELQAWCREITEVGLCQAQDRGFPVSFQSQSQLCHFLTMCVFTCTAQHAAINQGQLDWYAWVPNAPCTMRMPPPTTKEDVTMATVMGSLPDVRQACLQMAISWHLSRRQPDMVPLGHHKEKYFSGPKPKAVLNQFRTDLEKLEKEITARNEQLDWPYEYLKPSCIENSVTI

CYP2D6 = CYP2D6 (Homo sapiens, UniProt P10635); test: Inhibition of CYP2D6 at 1 uM; type: ADME
Chain of CYP2D6 (P10635 whole entry): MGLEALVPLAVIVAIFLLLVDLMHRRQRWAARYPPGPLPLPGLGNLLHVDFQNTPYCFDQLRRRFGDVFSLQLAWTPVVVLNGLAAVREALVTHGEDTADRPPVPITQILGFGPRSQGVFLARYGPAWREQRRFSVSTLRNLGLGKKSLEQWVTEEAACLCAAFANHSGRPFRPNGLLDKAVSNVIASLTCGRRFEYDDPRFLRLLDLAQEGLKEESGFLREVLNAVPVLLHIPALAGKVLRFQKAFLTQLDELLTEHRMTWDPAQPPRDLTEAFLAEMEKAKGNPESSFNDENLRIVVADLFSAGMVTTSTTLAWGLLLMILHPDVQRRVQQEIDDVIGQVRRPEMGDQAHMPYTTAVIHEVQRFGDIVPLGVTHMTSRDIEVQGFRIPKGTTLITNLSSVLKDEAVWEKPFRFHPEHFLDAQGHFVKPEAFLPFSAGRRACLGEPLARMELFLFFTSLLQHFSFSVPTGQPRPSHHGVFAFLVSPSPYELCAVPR

[15] = Metabolic stability in rat liver S9 fraction assessed as compound remaining; type: ADME, subcellular
[16] = target: T6, Prostaglandin G/H synthase 2 (Homo sapiens) (UniProt P35354); test: Inhibition of COX2 at 10 uM
T6 sequence (whole entry): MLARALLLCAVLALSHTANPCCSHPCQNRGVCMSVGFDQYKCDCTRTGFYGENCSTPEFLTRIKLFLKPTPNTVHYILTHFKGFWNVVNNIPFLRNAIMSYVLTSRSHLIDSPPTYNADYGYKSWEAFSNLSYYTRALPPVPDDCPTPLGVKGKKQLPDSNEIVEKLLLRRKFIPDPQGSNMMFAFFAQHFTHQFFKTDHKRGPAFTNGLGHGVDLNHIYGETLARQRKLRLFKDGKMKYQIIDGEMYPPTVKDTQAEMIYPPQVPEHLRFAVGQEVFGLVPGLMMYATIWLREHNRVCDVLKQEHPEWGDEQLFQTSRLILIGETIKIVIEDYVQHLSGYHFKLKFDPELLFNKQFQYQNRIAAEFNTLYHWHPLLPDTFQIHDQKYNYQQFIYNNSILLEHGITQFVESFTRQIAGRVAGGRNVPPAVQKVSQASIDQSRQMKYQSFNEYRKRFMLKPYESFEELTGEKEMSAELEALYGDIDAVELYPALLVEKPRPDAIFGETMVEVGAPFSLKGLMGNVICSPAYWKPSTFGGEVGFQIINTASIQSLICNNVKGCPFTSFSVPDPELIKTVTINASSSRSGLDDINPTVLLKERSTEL

[17] = target: Phospholipase A2 (Homo sapiens) (UniProt P04054); test: Inhibition of PLA2 at 10 uM
Chain of Phospholipase A2 (Homo sapiens) (P04054 23-148 limits assumed): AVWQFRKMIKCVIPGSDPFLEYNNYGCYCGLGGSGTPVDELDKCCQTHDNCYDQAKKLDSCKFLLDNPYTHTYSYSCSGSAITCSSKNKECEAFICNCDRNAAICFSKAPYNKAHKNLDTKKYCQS

Molecule `O=C(O)Cc1sc(C(c2ccccc2)c2ccccc2)nc1-c1ccc(Cl)cc1` has a bioavailability [1] of 62%, an IC50 [2] of 0.014 µM and an IC50 [3] of 0.06 µM. For the same molecule, the inhibition [4] was 20%, the IC50 [5] was 100 µM and the inhibition at 1 µM (CYP3A4) was 69%. For the same molecule, the solubility [6] was 197 µM (≈ 82.7 µg/mL), the Efficacy [7] was 50% and the clearance [8] was 1.62 L/h/kg. It also gave a solubility [9] of 154 µM (≈ 64.7 µg/mL), a Stability [10] of 98.5% and a half-life [11] of 24 h. It also gave a Papp A→B [12] of 26 nm/s, an inhibition [13] of 20% and an inhibition [14] of 20%. It also gave an inhibition at 1 µM (CYP2D6) of 97.8%, a Stability [15] of 2.1% and an inhibition [16] of 20%. The inhibition [17] was 20%.
